Assay results taken from paper PMC2680961, “Homologous desensitization of signalling by the alpha (α) isoform of the human thromboxane A2 receptor: A specific role for nitric oxide signalling” (Biochimica et Biophysica Acta, 2007).
Numbering of substitutions follows the chain as printed.

How the values were obtained:
[1] = target: T1, TPα^T337A (Homo sapiens, UniProt P21731, T337A); experiment: Intracellular calcium mobilization, HEK.TPα^T337A cells; assay type: cell-based; settings: for Δ[Ca2+]i, U46619-induced: HEK.TPα^T337A
T1 construct: expressed in transfected cells
T1 sequence (P21731 1-343 T337A): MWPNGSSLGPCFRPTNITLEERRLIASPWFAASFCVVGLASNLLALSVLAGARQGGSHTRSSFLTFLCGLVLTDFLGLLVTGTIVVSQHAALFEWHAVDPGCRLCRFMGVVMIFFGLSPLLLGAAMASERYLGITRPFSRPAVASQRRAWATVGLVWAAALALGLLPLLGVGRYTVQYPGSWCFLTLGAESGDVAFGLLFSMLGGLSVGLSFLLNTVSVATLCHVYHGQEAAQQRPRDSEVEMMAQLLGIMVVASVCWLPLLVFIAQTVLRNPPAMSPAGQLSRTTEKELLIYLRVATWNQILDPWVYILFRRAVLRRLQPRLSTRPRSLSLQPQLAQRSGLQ
Experimental: (§1) Measurement of intracellular calcium mobilization ([Ca^2+]i) in FURA2/AM preloaded HEK 293 cell lines (2 × 10^6 cells/dish), each transiently co-transfected with pADVA (10 μg), and pCMV:Gαq (25 μg), was carried out as previously described. To investigate the effect of GRK2/βARK1 on TP-mediated [Ca^2+]i mobilization, HEK.TPα or HEK.TPβ cells (2 × 10^6 cells/dish) were co-transfected with pADVA (10 μg), pCMV:Gαq (25 μg) along with pRK5:βARK1^495–689 (25 μg), encoding a dominant negative form of GRK2/βARK1[39]. Approximately 48 h post-transfection, cells were harvested by scraping, washed twice in ice-cold PBS and resuspended in HBSSHB (modified Ca^2+/Mg^2+-free Hank's buffered salt solution, containing 10 μM HEPES, pH 7.67, 0.1% bovine serum albumin (BSA)) buffer at 10^7 cells/ml and incubated in the dark with 5 μM FURA2/AM for 45 min at 37 °C. […] For each measurement of [Ca^2+]i mobilization, aliquots of cells were diluted to 0.825 × 10^6 cells/ml in HBSSHB, 1 mM CaCl2 and FURA2 fluorescence was recorded (2 ml aliquots of cells) at 37^ °C with gentle stirring with a Perkin Elmer-Cetus LS50-B spectrofluorometer at excitation wavelengths of 340 nm and 380 nm and emission wavelength of 510 nm, respectively.
Cells were stimulated with the TP agonist U46619 (1 μM) and changes in [Ca^2+]i mobilization were monitored as a function of time. To assess agonist-mediated homologous desensitization, cells (0.825 × 10^6 cells/ml; 2 ml per assay) were stimulated with 1 μM U46619 (Primary stimulation) or, as a control, with the vehicle for 4 min; thereafter, cells were collected by centrifugation (900×g, 5 min); were washed twice in 2 ml HBSSHB, 1 mM CaCl2; and finally resuspended in 2 ml HBSSHB,1 mM CaCl2 and were left to recover over various time intervals (ranging from 0 to 60 min); thereafter, cells re-stimulated with 1 μM U46619 (Secondary stimulation) and changes in [Ca^2+]i mobilization were monitored as a function of time. […]

[2] = target: T2, TP^S145A,Δ328 (Homo sapiens, UniProt P21731, S145A); experiment: Intracellular calcium mobilization, HEK.TP^S145A,Δ328 cells; assay type: cell-based
T2 construct: expressed in transfected cells
T2 sequence (P21731 1-328 S145A): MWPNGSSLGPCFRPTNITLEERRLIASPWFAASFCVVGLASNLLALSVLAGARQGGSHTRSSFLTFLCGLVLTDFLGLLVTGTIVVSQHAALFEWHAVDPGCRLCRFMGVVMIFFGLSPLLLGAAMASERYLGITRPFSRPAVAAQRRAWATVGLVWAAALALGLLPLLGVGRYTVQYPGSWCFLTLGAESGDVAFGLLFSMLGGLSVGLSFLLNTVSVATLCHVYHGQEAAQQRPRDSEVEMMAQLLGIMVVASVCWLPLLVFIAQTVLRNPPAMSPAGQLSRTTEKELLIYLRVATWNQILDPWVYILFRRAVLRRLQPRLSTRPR
Experimental: as §1, with “GRK2/βARK1[39].” for “GRK2/βARK1[39]. Approximately 48 h post-transfection, cells were harvested by scraping, washed twice in ice-cold PBS and resuspended in HBSSHB (modified Ca^2+/Mg^2+-free Hank's buffered salt solution, containing 10 μM HEPES, pH 7.67, 0.1% bovine serum albumin (BSA)) buffer at 10^7 cells/ml and incubated in the dark with 5 μM FURA2/AM for 45 min at 37 °C.”
Cells were stimulated with the TP agonist U46619 (1 μM) and changes in [Ca^2+]i mobilization were monitored as a function of time. […]
The vehicle had no effect on U46619-mediated [Ca^2+]i mobilization. Calibration of the signal was performed in each sample by adding 0.2% Triton X-100 to obtain the maximal fluorescence ratio (Rmax) and then 1 mM EGTA to obtain the minimal fluorescence ratio (Rmin). […]

[3] = target: T3, TPα^S340A (Homo sapiens, UniProt P21731, S340A); experiment: [3H]SQ29,548 radioligand binding, Scatchard analysis, HEK.TPα^S340A
T3 construct: expressed in transfected cells
T3 sequence (P21731 1-343 S340A): T1 sequence (P21731 1-343 T337A) with A337T, S340A
Experimental: Cells were harvested by centrifugation at 500×g at 4 °C for 5 min and washed three times with ice-cold Ca^2+/Mg^2+-free phosphate-buffered saline (PBS). TP radioligand binding assays were carried out at 30 °C for 30 min in 100 μl reactions in the presence of 0–40 nM [^3H] […] Protein determinations were carried out using the Bradford assay.
Radioligand binding and Scatchard analysis data were analysed using GraphPad Prisim V4.0 programme (GraphPad Software Inc., San Diego CA, USA). Statistical analyses were carried out using the unpaired Student's t test using the Statworks Analysis Package. p-values ≤ 0.01 indicated statistically significant differences.

[4] = secondary 1 μM U46619 at 15 min

SMILES	Δ[Ca2+]i, U46619-induced ([1]; primary 1 μM U46619 4 min)	Δ[Ca2+]i, U46619-induced [1, 4]	secondary U46619 [Ca2+]i response relative to primary response ([1]; TPα^T337A)	Δ[Ca2+]i, U46619-induced ([2]; primary 1 μM U46619 4 min)	Δ[Ca2+]i, U46619-induced [2, 4]	Bmax (pmol/mg protein ± S.E.M.) [3]
CCCCC[C@H](O)/C=C/[C@@H]1[C@@H](C/C=C\CCCC(=O)O)[C@H]2CO[C@@H]1C2 [U46619]	200 ± 9.2 nM	49 ± 5 nM	25%	174 ± 7.7 nM	170 ± 9.9 nM	
O=C(O)CCC/C=C\C[C@@H]1[C@H](CNNC(=O)Nc2ccccc2)[C@H]2CC[C@@H]1O2 [SQ29,548]						5.3 ± 0.04 pmol/mg protein
